From a melting point compilation (Tetko et al.; mined from patent text by program, amines drawn as free bases though some values may be those of a salt)

Row | melting point | Compound
1 | 92 to 93 °C | CCN1C[C@@H](C(=O)OC(C)(C)C)N(C(=O)[C@H](C)CSC(=O)c2ccccc2)C1=O
2 | 286 to 288 °C | CN(C)CCN1C(=O)N2[C@H](c3cccc(O)c3)c3[nH]c4ccc(Br)cc4c3C[C@@]2(C)C1=O (racemic)
3 | 143 to 144 °C | CC(C)n1nc(-c2cnc(NCc3ccccn3)nc2-c2ccccc2)ccc1=O
4 | 93.5 °C | C[Si](C)(C)c1ccc(-c2nccc3ccccc23)cc1
5 | 190 to 191 °C | C=CCOC(=O)c1cccc(NC(=O)NC(CC(=O)OC(C)(C)C)C(=O)Nc2ccccc2C(=O)c2ccc(OC)cc2)c1 (stereo not drawn)
6 | 317 to 318 °C | Cn1cc(C(N)=O)c(=O)c2ccc(F)cc21
7 | 138 to 140 °C | Cc1c(C#N)n(-c2ccc(Cl)cc2)c(=O)n1C
8 | 120 to 121 °C | CCCOC(Nc1ccccc1)(OCCC)c1ccnc(C(=O)c2ccc(C)cc2)c1
9 | 98 to 99 °C | Cc1oc(-c2ccc(C(F)(F)F)cc2)nc1CO
10 | 175 to 176 °C | C[C@@H]1Cc2cc3c(cc2C(c2ccc([N+](=O)[O-])cc2)=NN1c1cnns1)OCO3
11 | 175 °C | CN(C)c1c(Cl)cc(C(O)C#Cc2ccc(C(=O)O)c(O)c2)cc1C(C)(C)C (stereo not drawn)
12 | 73 to 74 °C | CC(=O)N(c1cccc(C(F)(F)F)c1)c1cccc(C(F)(F)F)c1
13 | 208 °C | Cc1oncc1C(=O)N1CCN(c2ccc(NC(=O)c3cnn(-c4ccc(F)cc4)c3C)cc2C#N)CC1
14 | 52 to 55 °C | CCOC(=O)C(=CNc1ccc(F)c(F)c1OCC(C)O)C(=O)OCC (stereo not drawn)
15 | 50.2 to 51.7 °C | COC(=O)CCc1ccc(OCCc2nc(-c3ccccc3)oc2C)cc1
16 | 241 to 242 °C | COC(=O)c1ncc(O)c2c1[nH]c1ccccc12
17 | 156 to 158 °C | O=C1Nc2ccc(C(F)(F)F)cc2C1(O)c1cc(Cl)ccc1O (stereo not drawn)
18 | 210 to 212 °C | Cc1ccnc(-c2ccccc2)c1C(=O)O
19 | 136 °C | CCC(=O)Oc1cc(OC)cc(OC)c1C(=O)C=Cc1ccc(Cl)cc1
20 | 122 to 124 °C | CCN1CCCC1=NC(=O)Nc1cccc(Cl)c1
21 | 165 °C | Cc1cc(=O)n(O)c(C)c1Cc1ccccc1
22 | 199 to 200 °C | CC(C)n1nc(-c2c(-c3ccccc3)nn3ccc(OCC(=O)NC4CC4)cc23)ccc1=O

Row | melting point | Compound
23 | 153 to 155 °C | CCCCOc1cc(/C=C/C(=O)O)n(Cc2ccc(C(F)(F)F)cc2)n1
24 | 112 to 114 °C | CCc1ncccc1NC(=NC#N)NC(NC(=O)Cc1ccc(Cl)cc1)C(C)(C)C (stereo not drawn)
25 | 124 to 126 °C | CCC(C)(C)NCCC(C(=O)O)C(=O)c1ccc(Cl)cc1Cl (stereo not drawn)
26 | 120 to 127 °C | Oc1ccc(-c2ncn(CC(O)(Cn3cncn3)c3ccc(F)cc3F)n2)cc1 (stereo not drawn)
27 | 110 to 112 °C | COC(=O)c1ccc(CNC(=O)C[C@H]2O[C@H](c3cccc(OC)c3OC)c3cc(Cl)ccc3N(CC(C)(C)CO)C2=O)cc1
28 | 145 to 147 °C | CCOC(=O)C1=C(C)NC(CS)=C(C(=O)OCC)C1c1cccc([N+](=O)[O-])c1 (stereo not drawn)
29 | 148 to 150 °C | CCc1cccc2c(/C=C(\C)C(=O)O)cc(OC)c(OC(C)=O)c12
30 | 168 to 170 °C | CC1(C)CCC(C)(C)c2cc(C(=O)COc3ccc(C(=O)O)cc3)ccc21
31 | 170 to 172 °C | COC(=O)Nc1cccc(C)c1CNc1cccn2c(CO)c(C)nc12
32 | 151 to 152 °C | CCCCCCCCOc1ccc(-c2ccc(NC(=O)N(O)C(CC)CC)cc2)cc1
33 | 139 to 141 °C | N#Cc1c[nH]c2cccc(OCc3ccccc3)c12
34 | 132 to 135 °C | CS(=O)(=O)OCCOc1cc([N+](=O)[O-])ccc1N
35 | 239 to 241 °C | COc1cc2c(=O)n(CCN(C)C)c3c(cnc4cccc(N)c43)c2cc1OC
36 | 118 to 119 °C | CC(C)(C)OC(=O)Nc1cc(OCC#N)c(-c2ccc(F)cc2)cc1N
37 | 134 °C | CC(C)(C)c1ccc(-n2cnnc2C(F)(F)F)cc1
38 | 124 °C | COC1=Cc2ccccc2Nc2ccccc21
39 | 176 to 178 °C | CCOC(=O)c1cc2c(nc(C)n2C)c2c1CCC(OC)(c1ccccc1)O2 (stereo not drawn)
40 | 127 to 130 °C | c1ccc2c(c1)C1CCC2c2c(OCC3CO3)cccc21 (stereo not drawn)
41 | 319 °C | O=C(Nc1ccc2ccc(Cl)nc2n1)c1ccccn1
42 | 183 to 185 °C | CCOC(=O)c1ccc(NC(=O)c2c(OC)cccc2OC)cc1
43 | 263 to 265 °C | O=[N+]([O-])c1ccc2nc(-c3ccc4c(c3)OCCO4)ncc2c1

Second part, the molecule before the results:

Row | Compound | melting point
44 | NS(=O)(=O)c1cc2cc3c(cc2n1S(=O)(=O)c1ccccc1)OCO3 | 229 to 232 °C
45 | O=C(O)C(=O)Nc1ccc2c(=O)n3c(nc2c1)C(=Cc1ccccc1)CC3 | 198 to 200 °C
46 | O=C(Cc1ccc(Cl)cc1Cl)c1ccncc1 | 77 °C
47 | COc1ccc(S(=O)(=O)Nc2cccnc2/C=C/c2ccc(O)cc2)cc1 | 217 to 219 °C
48 | CCCN(CCCN1CCN(c2cccc(Cl)c2Cl)CC1)C1CCc2ncsc2C1 (stereo not drawn) | 110 °C
49 | COc1ccc2nc(N3CCN(C[C@H]4COc5ccc6nc(C)ccc6c5O4)CC3)ccc2c1 | 95 to 97 °C
50 | OCCNc1cc(Nc2ccc(Nc3ccccc3)cc2)ncn1 | 154 to 155 °C
51 | O=c1cc(C(F)(F)F)c2ccc(NCc3ccccc3)cc2o1 | 136 to 137 °C
52 | OC(CNCCc1cc(Br)sc1Br)c1ccccc1 (stereo not drawn) | 94 °C
53 | COc1ccc(C(=O)Nc2nc(-c3ccco3)c(-c3ccncc3)s2)cc1 | 235 to 245 °C
54 | Cc1cc(-n2c(=O)cc(C(F)(F)F)n(C)c2=O)c(F)cc1C#N | 186 °C
55 | C=C(CC(=O)Nc1cccc(/C=C/c2nc(C3CCCCC3)cs2)c1)C(=O)O | 187 to 189 °C
56 | O=S1(=O)c2cccc3cccc(c23)N1CCCCN1CCN(c2ccc(O)cc2)CC1 | 195 °C
57 | CC(C)CN(CC(=O)O)S(=O)(=O)c1ccc(N2CCC(c3ccccc3)CC2)cc1 | 140 to 143 °C
58 | Cc1cc2c(cc1N1CC(C)C(C)C1)OC(=O)C2C (stereo not drawn) | 104 to 105 °C
59 | CCOCc1nc2c(N)nc3cc(OCCCN4CCCC4=O)ccc3c2n1CCCCNS(C)(=O)=O | 157 °C
60 | Cc1cc(C)c(N2c3ccccc3Sc3ccccc32)c(C)c1 | 192 to 200 °C
61 | Cc1nnc2n1-c1ccc(Cl)cc1C(N1CCOCC1)=NC2 | 243 to 253 °C
62 | Cc1c(C#N)sc2nc(CCCc3ccccc3)nc(N3CCN(C)CC3)c12 | 101 to 103 °C
63 | CCCn1c(COCc2ccc(OC)cc2)nc(C(C)C)c1Sc1cc(Cl)cc(Cl)c1 | 104 to 107 °C
64 | Cc1ccc2c(c1)c(N1CCN(C(=O)c3cccs3)CC1)c(C#N)c(=O)n2Cc1ccccc1 | 183 °C
65 | CCOCc1nc2c(N)nc3cc(N4CCCCC4)ccc3c2n1CCCOC(C)C | 182 to 184 °C
66 | CCCn1nc2c(Cl)nc3ccccc3c2c1C | 145 to 147 °C
67 | COCC(=S)Nc1c(Cl)c(C)cc2nc(OC)c(OC)nc12 | 174 to 176 °C
68 | CC(=Cc1ccc(-c2ccccc2)s1)c1ccccc1 | 115 to 125 °C
69 | COC(=O)NC(=O)Nc1nc2c(C)cccc2s1 | 272 to 280 °C
70 | Cc1c(C)c2c(c(C)c1O)C(c1ccc(C(C)C)cc1)C1(CCN(C)CC1)O2 (stereo not drawn) | 114 to 117 °C
71 | CC(C)CC(=O)N[C@@H](Cc1ccccc1)C(=O)CSCc1ccco1 | 94 to 95 °C

Row | Compound | melting point
72 | Cc1nc(OC(F)F)c(C#N)c(N2CCc3ccccc3CC2)n1 | 143 °C
73 | O=C(OCc1ccccc1)c1cc2cc(OCc3ccccc3)ccc2cc1OCc1ccccc1 | 99 to 102 °C
74 | COc1cccc2c1C(C)N1CC(=O)NC1=N2 (stereo not drawn) | 250 °C
75 | CC1CN(Cc2ccccc2)Cc2c(C=O)c(-c3ccccc3)n(Cc3ccccc3)c21 (stereo not drawn) | 120 to 121 °C
76 | CCn1nnnc1CCC1(C)Cn2cc([N+](=O)[O-])nc2O1 (stereo not drawn) | 135 to 137 °C
77 | COc1cc(OC)c(F)c(N2Cc3cnc(NC[C@H](O)[C@@H](O)CO)nc3N(C3CCCC3)C2=O)c1 | 86 to 88 °C
78 | CCOc1ncnc(C(F)(F)F)c1CS(=O)(=O)C1=NOC(C)(CCl)C1 (stereo not drawn) | 76 to 78 °C
79 | COc1cc(C)cc2ncc(Br)n12 | 105 to 106 °C
80 | CCC1(C)C(=O)N=C(SCc2ccccc2N(C)C)N1C(C)=O (stereo not drawn) | 83 to 85 °C
81 | O=[N+]([O-])c1ccccc1N1CCN(c2ccccc2)CCN1 | 119 to 121 °C
82 | CC(c1oc2ccc(Br)cc2c(=O)c1-c1ccccc1)n1cnc2c(N)ncnc21 (stereo not drawn) | 230 to 231 °C
83 | COc1cc(CCNC(=O)C(F)(F)F)ccc1[N+](=O)[O-] | 104 °C
84 | Cc1cc(S(=O)(=O)N(C)CC(O)(CCl)c2ccccc2)ccc1Cl (stereo not drawn) | 105 to 107 °C
85 | CCOC(=O)c1cn2c3c(cc(CN4CCOCC4)cc3c1=O)OC(c1ccccc1)C2 (stereo not drawn) | 213 to 215 °C
86 | OCc1ccc(O)c(CO)c1CNCCCCCCOCC1CCCCC1 | 72 to 74 °C
87 | CCCCCCCCC1C=CC(C(=O)c2ccc(C(=O)O)o2)=C2N=C3CCCCC3=C21 (stereo not drawn) | 140 to 142 °C
88 | O=C(OCCCl)c1ccccc1CS(=O)(=O)Cl | 66 to 67 °C
89 | CC(=O)OCC1OC(OC2C(COC(C)=O)OC(Sc3ccc(N)cc3)C(OC(C)=O)C2OC(C)=O)C(OC(C)=O)C(OC(C)=O)C1OC(C)=O (stereo not drawn) | 145 to 148 °C
90 | C[Si](C)(C)c1ccc(F)c([Si](C)(C)C)c1C(=O)N1CCCC1 | 97 to 100 °C
91 | O=[N+]([O-])c1cc(C2OCCCO2)ccc1O | 70 to 71 °C
92 | Cc1cc(C)nc(NC(=O)NS(=O)(=O)N2CCCC2)n1 | 180 to 181 °C
93 | COc1cc(OC)nc(C(OC)(C(=O)NS(C)(=O)=O)c2ccccc2)n1 (stereo not drawn) | 155 to 157 °C
94 | CCCCC(Cc1ccc(OCCN(CC)CC)cc1)(C(=O)NO)S(=O)(=O)c1ccc(OC)cc1 (stereo not drawn) | 67 °C
95 | O=C(O)c1cnn2c(C(F)(F)F)cc(-c3ccc(C(F)(F)F)c(F)c3)nc12 | 212 °C
96 | COc1c(C)c(C(=O)c2ccc3[nH]c(=O)n(O)c(=O)c3c2)n2ccccc12 | 300 °C
97 | CCCCNc1nc(N)nc(-c2ccc(Cl)c(Cl)c2)n1 | 176 to 179 °C
98 | CC(=O)NCCc1c(C(F)(F)F)nn2ccc3c(c12)CCO3 | 196 to 198 °C
